# From patent US20250075248A1, “SYSTEMS, METHODS, AND DEVICES FOR ANTIMICROBIAL SUSCEPTIBILITY TESTING” (Deepull Diagnostics S.L., priority 2022, published 2025)
# Columns and labels:
# Format in all cases: cell-based
# [1] = system: Klebsiella pneumoniae ATCC13883; experiment: Microscopy-based AST (MIC) from spiked blood tube sample after lysis, enrichment and immunomagnetic separation
# Description: First, Streptavidin coated beads were washed and immobilized. […] The typical binding capacity per mg (100 μL) of the magnetic beads used is approximately 20 μg of biotinylated antibody. After the coating, some washes with a phosphate saline buffer containing 0.01% of BSA (w/v) (adjusted pH 7.4) were performed. Finally, beads were resuspended to the desired concentration for the application. The antibody used was a biotin Klebsiella Polyclonal Antibody (PA1-73177, Invitrogen) and the magnetic beads used were Dynabeads MyOne Streptavidin T1 (65601, Thermofisher Scientific).
# Blood samples were prepared from a single large blood pool from donors collected in 10 mL EDTA blood tubes which was spiked with the appropriate amount of bacteria (Klebsiella pneumoniae ATCC13883) depending on the target inoculum (around 100 CFU/10 mL). After the pool was spiked, 10 mL were transferred to a previously labelled 15 mL tube containing a lysing agent (700 μL of Isolator BC0507C, Oxoid) and an immiscible fluorocarbon oil (20 μL of Fluorinert™ FC-40 F9755, Sigma-Aldrich). To lyse and concentrate, samples were incubated for a short period of time (30 seconds) under rotatory movement at low speed (10 rpm) and centrifugated at 12.000 g force for 5 minutes with a fixed angle rotor. The supernatant of each sample was discarded until 500 μL used to prepare the matrix for the enrichment step. […]
# For the immunomagnetic separation of the bacteria from the blood, 100 μL of antibody coated beads were added to each sample tube. […] These samples were also observed under an inverted fluorescence microscope in order to know the bacteria present in the sample and calculate the amount needed to perform the AST test, which was the next and last step in this end-to-end assay. 5 μL of each sample were transferred to a 384-well plate with a flat polystyrene film bottom and incubated with fluorescence dyes (SYBR Green and Propidium Iodide) during 10 min at room temperature in the dark. […]
# [2] = system: Klebsiella pneumoniae ATCC13883; experiment: Broth microdilution method MIC; settings: K. pneumoniae ATCC13883, read-out: MIC according to broth microdilution method
# [3] = system: Klebsiella pneumoniae (IHMA1977064); experiment: Microscopy-based AST (MIC) from liquid culture
# Description: The minimal inhibitory concentration was determined using embodiments disclosed herein for one strain of Gram-negative bacteria Klebsiella pneumoniae (IHMA1977064) with an MIC of 8 mg/L to meropenem according to the broth microdilution method. Bacteria was grown in liquid culture until an exponential phase in culture media. The cultures were diluted in culture media (Mueller Hinton cation adjusted broth) and was incubated at a final concentration of 2×10^4 CFU/mL during 5 hours at 37° C. at different concentrations of meropenem in a final volume of 10 μL. Meropenem concentrations tested were 32, 16, 8, 4, 2 and 1 mg/L […]. Three replicates were performed for each antibiotic concentration.
# (§1) Samples were analyzed at time 0 of incubation and after 5 hours incubation (with and without antibiotic). 5 μL of each sample were transferred to a 384-well plate with flat polystyrene film bottom and incubated with fluorescence dyes (SYBR Green and Propidium Iodide) during 10 minutes at room temperature in the dark. The 384-well plate was centrifuged during 1 minute at 3000 g in a swinging-bucket movement and observed in an inverted fluorescence microscope. For each sample, a composite image covering the bottom of each well was constructed. Images were analyzed with a custom software to count bacteria, detect filamentous bacteria, counts red bacteria, and record the brightness of bacteria. These images are illustrated in FIG. 24A.
# This graph is illustrated in FIG. 24B.
# [4] = system: Klebsiella pneumoniae (IHMA1977064); experiment: Broth microdilution method MIC; settings: K. pneumoniae IHMA1977064, read-out: MIC according to broth microdilution method
# [5] = system: Klebsiella pneumoniae ATCC13883; experiment: Microscopy-based AST (MIC) from spiked blood culture bottle after immunomagnetic separation
# Description: First, Streptavidin coated beads were washed and immobilized. The washing buffer and the immobilization process may be different depending on the application. […] The typical binding capacity per mg (100 μL) of magnetic beads used is approximately 20 μg of biotinylated antibody. After the coating, some washes were performed with a phosphate saline buffer containing 0.01% of BSA (w/v) (adjusted pH 7.4) and then beads were finally resuspended to the desired concentration for the application. The antibody used was a biotin Klebsiella Polyclonal Antibody (PA1-73177, Invitrogen) and the magnetic beads used were Dynabeads MyOne Streptavidin T1 (65601, Thermofisher Scientific).
# Blood samples were prepared from a previously mixed single large blood pool which was spiked with the appropriate amount of bacteria (Klebsiella pneumoniae ATCC13883) depending on the target inoculum (around 100 CFU). After the pool was spiked, 10 mL were transferred to a previously labelled blood culture system (442023, BD BACTEC™ Plus Aerobic/F) and mixed with an agitation platform (5 minutes at 150 rpm). […]
# The immunomagnetic separation of the bacteria was performed using a 15 mL tube containing 5 mL of a matrix extracted from a blood culture bottle and 100 μL of beads coated with anti-K. pneumoniae antibodies. […] The samples were also observed under an inverted fluorescence microscope in order to determine the number of bacteria present in the sample and calculate the adjustment needed to perform the AST test. 5 μL of each sample were transferred to a 384-well plate with flat polystyrene film bottom and incubated with fluorescence dyes (SYBR Green and Propidium Iodide) during 10 minutes at room temperature in the dark. The 384-well plate was centrifuged during 1 minute at 3000 g in a swinging-bucket centrifuge and observed in an inverted fluorescence microscope. […] Images were analyzed with a custom software to determine the number of bacteria. […]
# Samples were analyzed at time 0 of incubation and after 5 h incubation (with and without antibiotic). […]
# [6] = system: Klebsiella pneumoniae (ATCC13883); experiment: Microscopy-based AST (MIC) from liquid culture
# Description: Bacteria was grown in a liquid culture until an exponential phase in culture media. The cultures were diluted in culture media (Mueller Hinton cation adjusted broth) and was incubated at a final concentration of 2×10^4 CFU/mL during 5 hours at 37° C. at different concentrations of […] in a final volume of 10 μL. Gentamicin concentrations tested were 4, 2, 1, 0.5, 0.25 and 0.125 mg/L. Three replicates were performed for each antibiotic concentration.
# as §1, with “Samples” for “5 μL of each sample”, “were” for “were transferred to a 384-well plate with flat polystyrene film bottom and”, “dark. After dye incubation, a sample of 1 μL was diluted with 4 μL of buffer (NaCl 0.9%) and transferred to a 384-well plate with flat polystyrene film bottom.” for “dark.”, “23A” for “24A.”
# This graph is illustrated in FIG. 23B.
molecule,measurement,setting,value
"O=C(O)c1cn(C2CC2)c2cc(N3CCNCC3)c(F)cc2c1=O [ciprofloxacin, Ciprofloxacin]",MIC,"[1]; Klebsiella pneumoniae, ATCC13883, 5 h",0.015 µg/mL
same,bacterial growth after 5 hours incubation,[1]; at 0.008 and 0.004 mg/L,growth
same,bacterial growth after 5 hours incubation,[1]; at a concentration ≥0.015 mg/L,did not grow
same,MIC,[2],0.03 µg/mL
"C[C@@H](O)[C@H]1C(=O)N2C(C(=O)O)=C(S[C@@H]3CN[C@H](C(=O)N(C)C)C3)[C@H](C)[C@H]12 [meropenem, Meropenem]",MIC,"[3]; Klebsiella pneumoniae, liquid culture, 2×10^4 CFU/mL, 5 hours at 37° C., image analysis",4 µg/mL
same,bacterial growth after 5 hours incubation,[3]; at 2 and 1 mg/L,bacterial growth
same,bacterial growth after 5 hours incubation,[3]; at a concentration ≥4 mg/L,did not grow
same,MIC,[4],8 µg/mL
Gentamicin,bacterial growth after 5 hours incubation,[5]; at 0.125 and 0.06 mg/L,growth
same,bacterial growth after 5 hours incubation,[5]; at a concentration ≥0.25,did not grow
same,MIC,"[5]; blood culture bottle sample, 2×10^4 CFU/mL, 5 hours at 37° C., image analysis",0.25 µg/mL
same,bacterial growth after 5 hours incubation,[6]; at 0.125 mg/L,bacterial growth
same,bacterial growth after 5 hours incubation,[6]; at a concentration ≥0.25 mg/L,did not grow
same,MIC,"[6]; liquid culture, 2×10^4 CFU/mL, 5 hours at 37° C., image analysis",0.25 µg/mL
